PMC3945637 (Frontiers in Pharmacology, 2014)
Values joined by “and” are separate entries in the source; they are usually repeats but may differ in a detail not shown here. Equal entries are not always repeated. Peptide text beside a SMILES is read from it.

What was measured:
[1] = biological target: T1, rabbit B2R-green fluorescent protein (B2R-GFP) (Oryctolagus cuniculus, UniProt Q28642); test: [3H]BK binding competition to B2R-GFP stably expressed in intact HEK 293 cells; details: for IC50 for B2R-GFP relative to unlabeled BK (fold greater IC50 / lower affinity): [3H]BK binding competition, vs BK; for [3H]BK binding to B2R-GFP log(IC50) ± SE: log of IC50, 3 nM [3H]BK, 0 °C, with peptidase inhibitors incl. captopril, HEK 293 cells
T1 construct: expressed in transfected cells
T1 sequence (Q28642 1-367): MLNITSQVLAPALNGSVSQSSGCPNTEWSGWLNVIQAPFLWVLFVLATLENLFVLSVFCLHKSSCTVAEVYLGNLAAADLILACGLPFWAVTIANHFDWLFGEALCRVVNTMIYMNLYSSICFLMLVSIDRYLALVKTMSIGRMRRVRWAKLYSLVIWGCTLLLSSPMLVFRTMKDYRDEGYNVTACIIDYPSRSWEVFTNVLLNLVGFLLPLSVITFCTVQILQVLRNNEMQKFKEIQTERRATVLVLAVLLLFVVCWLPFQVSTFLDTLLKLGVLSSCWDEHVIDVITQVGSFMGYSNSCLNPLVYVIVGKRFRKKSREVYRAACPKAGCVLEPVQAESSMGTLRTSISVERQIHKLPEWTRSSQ
Method: (§1) Affinity for the B2R was evaluated using a radioligand binding competition assay performed at 0 °C in the presence of peptidase inhibitors that included captopril ([Houle et al., 2000]). […] Other HEK 293a cells that transiently expressed human recombinant ACE were used to perform a [^3H]enalaprilat binding assay as described ([Koumbadinga et al., 2010]; the peACE vector was a gift from Prof. P. Corvol, Paris, France).
(§2) Results are presented as mean ± SEM. Radioligand binding data were fitted by non-linear regression to a one-site competition equation using a least-square method (Prism 4.0, GraphPad Software Inc., San Diego, CA, USA) and IC50 values calculated from this procedure. The same computer program was used to draw concentration-effect curves (least square fitting of sigmoidal dose-response equation with variable slope) and to derive contractile EC50 values. The qualitative effect of treatments on the distribution of the B2R-GFP fluorescent protein (either located at the plasma membrane or submitted to internalization) was evaluated for each HEK 293 cell in large microphotographic records and proportion of affected cells were compared using the χ^2 statistics to determine drug effect on the subcellular receptor distribution.

[2] = biological target: T2, BK B2R (human umbilical vein rings) (Homo sapiens, UniProt P30411); test: Human isolated umbilical vein contractility assay; assay type: cell-based; details: for +Peptidase inhibitor log(EC50) ± SE / Control (DMSO vehicle) log(EC50) ± SE: log of contractile EC50; for Control (DMSO vehicle) log(EC50) ± SE: no peptidase inhibitor, paired tissues; for fold less potent than BK as contractile agent: control conditions, vs BK; for decrease of apparent contractile potency by ACE blockade: enalaprilat 1 μM vs paired control tissues
T2 construct: from tissue; host or cells: human umbilical vein rings
T2 sequence (P30411 1-391): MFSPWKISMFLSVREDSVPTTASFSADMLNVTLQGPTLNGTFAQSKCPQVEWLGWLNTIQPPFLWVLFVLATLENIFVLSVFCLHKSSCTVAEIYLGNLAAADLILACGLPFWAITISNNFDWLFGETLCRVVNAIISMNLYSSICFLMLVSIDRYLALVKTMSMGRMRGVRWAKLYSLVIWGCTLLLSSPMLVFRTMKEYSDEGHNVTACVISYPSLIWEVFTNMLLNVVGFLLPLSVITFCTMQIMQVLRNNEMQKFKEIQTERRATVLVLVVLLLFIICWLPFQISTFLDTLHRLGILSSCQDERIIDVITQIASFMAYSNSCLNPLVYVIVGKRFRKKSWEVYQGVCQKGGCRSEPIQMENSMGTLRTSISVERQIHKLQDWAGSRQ
Source text: The institutional research ethics board (CHU de Québec) approved the anonymous use of human umbilical cord segments obtained after elective cesarean section deliveries. Informed consent was obtained from mothers. […] Tissues were used only once and discarded; controls curves were obtained from other vascular rings from the same vein.
as §2

[3] = biological target: T3, human B1R (B1R-FLAG) (Homo sapiens, UniProt P46663); test: [3H]Lys-des-Arg9-BK binding competition to B1R-FLAG transiently expressed in HEK 293a cells; details: log of IC50; 1 nM [3H]Lys-des-Arg9-BK, HEK 293a cells
T3 construct: FLAG; expressed in transfected cells
T3 sequence (P46663 1-353): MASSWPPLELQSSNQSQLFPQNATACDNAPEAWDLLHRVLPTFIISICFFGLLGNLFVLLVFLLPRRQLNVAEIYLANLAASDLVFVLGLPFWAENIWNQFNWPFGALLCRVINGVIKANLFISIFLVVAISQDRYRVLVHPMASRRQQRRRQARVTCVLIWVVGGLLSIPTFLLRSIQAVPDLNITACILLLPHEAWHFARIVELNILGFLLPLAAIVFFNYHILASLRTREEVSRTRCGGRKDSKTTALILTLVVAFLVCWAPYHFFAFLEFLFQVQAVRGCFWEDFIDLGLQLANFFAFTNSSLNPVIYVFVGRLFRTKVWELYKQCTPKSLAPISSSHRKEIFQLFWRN

[4] = biological target: T4, human recombinant ACE (Homo sapiens, UniProt P12821); test: [3H]enalaprilat binding competition to recombinant ACE transiently expressed in HEK 293a cells; set-up: expressed in transfected cells; host or cells: HEK 293a cells, transient expression (peACE vector, gift from Prof. P. Corvol); details: for fold lesser affinity vs. BK for ACE: [3H]enalaprilat binding competition; for [3H]enalaprilat binding to ACE log(IC50) ± SE: log of IC50, 2 nM [3H]enalaprilat, HEK 293a cells
T4 sequence (P12821 30-1306): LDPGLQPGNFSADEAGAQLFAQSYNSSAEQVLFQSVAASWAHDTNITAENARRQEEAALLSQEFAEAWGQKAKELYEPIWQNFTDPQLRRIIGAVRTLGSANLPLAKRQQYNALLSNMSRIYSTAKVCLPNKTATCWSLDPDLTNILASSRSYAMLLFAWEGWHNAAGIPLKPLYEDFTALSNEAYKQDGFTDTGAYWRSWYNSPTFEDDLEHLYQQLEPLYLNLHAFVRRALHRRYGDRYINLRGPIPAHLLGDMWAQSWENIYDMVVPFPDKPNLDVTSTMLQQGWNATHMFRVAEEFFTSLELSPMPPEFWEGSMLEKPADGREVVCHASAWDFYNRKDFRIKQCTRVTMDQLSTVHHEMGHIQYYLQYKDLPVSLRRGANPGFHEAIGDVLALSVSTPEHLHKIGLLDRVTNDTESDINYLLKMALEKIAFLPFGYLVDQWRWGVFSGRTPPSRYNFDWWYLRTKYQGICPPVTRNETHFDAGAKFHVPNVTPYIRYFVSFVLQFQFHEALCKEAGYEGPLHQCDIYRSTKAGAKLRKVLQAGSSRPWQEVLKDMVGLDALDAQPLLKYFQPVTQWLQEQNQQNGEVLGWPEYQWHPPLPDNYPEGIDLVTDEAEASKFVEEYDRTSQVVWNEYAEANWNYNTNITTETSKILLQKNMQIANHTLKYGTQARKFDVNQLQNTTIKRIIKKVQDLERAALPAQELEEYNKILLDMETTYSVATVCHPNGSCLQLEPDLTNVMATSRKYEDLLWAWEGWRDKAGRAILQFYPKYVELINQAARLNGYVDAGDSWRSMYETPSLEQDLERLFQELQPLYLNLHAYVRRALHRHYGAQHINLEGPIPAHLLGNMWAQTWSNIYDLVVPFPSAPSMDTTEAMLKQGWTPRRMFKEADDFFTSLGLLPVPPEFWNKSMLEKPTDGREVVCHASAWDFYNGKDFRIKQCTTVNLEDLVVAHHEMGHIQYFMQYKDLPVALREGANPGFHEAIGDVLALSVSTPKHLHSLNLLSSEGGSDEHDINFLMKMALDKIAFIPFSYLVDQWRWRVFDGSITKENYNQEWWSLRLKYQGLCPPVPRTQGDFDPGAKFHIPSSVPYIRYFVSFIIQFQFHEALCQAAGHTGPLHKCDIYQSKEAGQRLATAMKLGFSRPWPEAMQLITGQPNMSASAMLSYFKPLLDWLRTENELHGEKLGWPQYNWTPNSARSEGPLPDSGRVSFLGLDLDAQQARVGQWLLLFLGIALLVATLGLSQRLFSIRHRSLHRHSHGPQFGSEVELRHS
Method: as §1, §2

[5] = biological target: endogenous B2 receptor of the human umbilical vein (human (endogenous in umbilical vein)) (UniProt P30411)
[6] = biological target: human B1R (B1R-FLAG vector) (human) (UniProt P46663); test: radioligand binding; competition of 1 nM [^3H]Lys-des-Arg^9-BK binding to HEK 293a cells transiently expressing human B1R (B1R-FLAG vector); one-site competition fit
[7] = biological target: T4, human recombinant ACE; test: radioligand binding; competition of 2 nM [^3H]enalaprilat binding to HEK 293a cells transiently expressing human recombinant ACE by BK and analogs; one-site competition fit
[8] = biological target: rabbit B2R-green fluorescent protein (rabbit) (UniProt Q28642); test: radioligand binding; competition of 3 nM [^3H]BK binding to adherent intact HEK 293 cells stably expressing rabbit B2R-GFP by unlabeled peptides; 0 °C; peptidase inhibitors that included captopril; one-site competition fit
[9] = enalaprilat 1 μM, 30 min before agonist

Row | Compound | IC50 for B2R-GFP relative to unlabeled BK (fold greater IC50 / lower affinity) [1] | [3H]BK binding to B2R-GFP log(IC50) ± SE [1] | Control (DMSO vehicle) log(EC50) ± SE [2] | [3H]Lys-des-Arg9-BK binding to B1R-FLAG log(IC50) ± SE [3] | fold less potent than BK as contractile agent [2] | +Peptidase inhibitor log(EC50) ± SE [2, 9] | fold lesser affinity vs. BK for ACE [4] | [3H]enalaprilat binding to ACE log(IC50) ± SE [4] | decrease of apparent contractile potency by ACE blockade [2] | log(IC50) [8] | also measured
1 | N=C(N)NCCC[C@H](NC(=O)[C@H](Cc1ccccc1)NC(=O)[C@@H]1CCCN1C(=O)[C@H](CO)NC(=O)[C@H](Cc1ccccc1)NC(=O)CNC(=O)[C@@H]1CCCN1C(=O)[C@@H]1CCCN1C(=O)[C@H](CCCNC(=N)N)NC(=O)[C@@H]1CCCN1C(=O)[C@@H](N)CCCNC(=N)N)C(=O)O [Arg-Pro-BK] (H-RPRPPGFSPFR-OH; N-terminus and C-terminus assumed) | 1.6 fold | -7.61 ± 0.09 | -7.39 ± 0.06 |  |  |  |  |  |  |  | effect of DPP-IV inhibitor NVP-DPP728 on apparent contractile potency (in words) ([2]; NVP-DPP728 1 μM): did not show a loss of apparent potency; effect of aminopeptidase inhibitor amastatin on contractile effect (in words) ([2]; amastatin 3 μM): failed to modify; +Peptidase inhibitor log(EC50) ± SE ([2]; NVP-DPP728 1 μM): -7.29 ± 0.03; +Peptidase inhibitor log(EC50) ± SE ([2]; amastatin 3 μM): -7.35 ± 0.07
2 | C[C@H](NC(=O)[C@H](CCCNC(=N)N)NC(=O)[C@H](Cc1ccccc1)NC(=O)[C@@H]1CCCN1C(=O)[C@H](CO)NC(=O)[C@H](Cc1ccccc1)NC(=O)CNC(=O)[C@@H]1CCCN1C(=O)[C@@H]1CCCN1C(=O)[C@@H](N)CCCNC(=N)N)C(=O)N1CCC[C@H]1C(=O)O [BK-Ala-Pro] (H-RPPGFSPFRAP-OH; N-terminus and C-terminus assumed) |  | -5.11 ± 0.16 | -6.59 ± 0.07 | >-5 | 14.1 fold | -5.55 ± 0.06 | 2.23 fold | -5.46 ± 0.11 |  |  | 
3 | N=C(N)NCCC[C@H](NC(=O)[C@H](Cc1ccccc1)NC(=O)[C@@H]1CCCN1C(=O)[C@H](CO)NC(=O)[C@H](Cc1ccccc1)NC(=O)CNC(=O)[C@@H]1CCCN1C(=O)[C@@H]1CCCN1C(=O)[C@@H](N)CCCNC(=N)N)C(=O)N[C@@H](CO)C(=O)N[C@@H](Cc1ccc(O)cc1)C(=O)O [BK-Ser-Tyr] (H-RPPGFSPFRSY-OH; N-terminus and C-terminus assumed) | 102 fold | -5.79 ± 0.13 | -6.90 ± 0.09 | >-5 | 6.9 fold | -6.32 ± 0.06 | 3.94 fold | -5.21 ± 0.15 | 3.9 fold |  | 
4 | CC(C)C[C@H](NC(=O)[C@H](Cc1c[nH]cn1)NC(=O)[C@H](CCCNC(=N)N)NC(=O)[C@H](Cc1ccccc1)NC(=O)[C@@H]1CCCN1C(=O)[C@H](CO)NC(=O)[C@H](Cc1ccccc1)NC(=O)CNC(=O)[C@@H]1CCCN1C(=O)[C@@H]1CCCN1C(=O)[C@@H](N)CCCNC(=N)N)C(=O)O [BK-His-Leu] (H-RPPGFSPFRHL-OH; N-terminus and C-terminus assumed) | 363 fold | -5.24 ± 0.20 | -6.61 ± 0.11 | >-5 | 13.5 fold | -5.34 ± 0.06 | 3.33 fold | -5.28 ± 0.22 | 18 fold and 18.3 fold |  | 
5 | BK-Ser-Tyr (peptide) |  |  |  |  |  |  |  |  |  | -5.79 log M | log(EC50) of contraction of the human isolated umbilical vein, with ACE blocked by enalaprilat 1 μM, Figure 3B [5]: -6.32 log M; log(IC50) [6]: > -5 log M; log(IC50) [7]: -5.21 log M
6 | Arg-Pro-BK (peptide) |  |  |  |  |  |  |  |  |  | -7.61 log M | log(EC50) of contraction of the human isolated umbilical vein, control (DMSO vehicle), Figure 5B [5]: -7.39 log M; log(EC50) of contraction of the human isolated umbilical vein, with NVP-DPP728 1 μM, Figure 5B [5]: -7.29 log M; log(EC50) of contraction of the human isolated umbilical vein, with amastatin 3 μM, Figure 5B [5]: -7.35 log M
